Experimental data as given in patent US11345694B2, “Antibacterial compounds” (DISCUVA LTD., priority 2017, dated 2022).
Converted amounts (≈) assume the structure as drawn. Like-named read-outs stand apart in the source and are kept apart here.

How the values were obtained:
[1] = system: E. coli NCTC 13441 (UPEC); assay: MIC broth microdilution; assay type: cell-based, Escherichia coli; settings: for MIC: Escherichia coli, NCTC13441
How it was run: (§1)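 Growth inhibition of planktonic bacteria by CLSI-guided broth microdilution, cation-adjusted Müller-Hinton medium, 37° C for 20-24 h; MIC from a 0.39-200 μM two-fold series.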

[2] = system: Pseudomonas aeruginosa ATCC 33359 (PA); assay: MIC broth microdilution; assay type: cell-based; settings: for MIC: ATCC33359
How it was run: as §1

[3] = system: Acinetobacter baumannii ATCC 17978 (AB); assay: MIC broth microdilution; assay type: cell-based; settings: for MIC: ATCC17978
How it was run: as §1

[4] = system: Escherichia coli K12 (EC); assay: MIC broth microdilution; assay type: cell-based
How it was run: as §1

[5] = system: Staphylococcus aureus ATCC 35556 (SA); assay: MIC broth microdilution; assay type: cell-based; settings: for MIC: ATCC35556
How it was run: as §1

[6] = system: Klebsiella pneumoniae ATCC 10031 (KP2); assay: MIC broth microdilution; assay type: cell-based; settings: for MIC: ATCC10031
How it was run: (§2)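 Following CLSI broth microdilution guidance, compounds were serially diluted two-fold to final concentrations of 0.39-200 μM. Planktonic cultures in cation-adjusted Müller-Hinton broth were then incubated 20-24 hours at 37° C, and the lowest concentration preventing growth was recorded as MIC.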

[7] = system: human hepatocarcinoma cell line ATCC HB-8065 (HepG2); assay: Human cell viability (CellTiter-Glo); assay type: cell-based; settings: HepG2 cells, 24 h incubation, CellTiter-Glo luminescence, 0.2-100 μM, read-out: IC50 values against the HepG2 cell line
How it was run: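 Cytotoxicity was read as CellTiter-Glo luminescence after 24 h compound exposure at 37° C., 5% CO2. Final concentrations spanned 0.2-100 μM in two-fold steps, in 1% FBS MEM with 1% DMSO, on cells plated a day earlier at 20,000/well. IC50 came from 4-parameter logistic regression.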

[8] = system: K. pneumoniae H151440671 (KP10); assay: MIC broth microdilution; assay type: cell-based, Klebsiella pneumoniae; settings: Klebsiella pneumoniae
How it was run: as §2

[9] = system: K. pneumoniae NCTC 13438 (KP1); assay: MIC broth microdilution; assay type: cell-based, Klebsiella pneumoniae; settings: for MIC: Klebsiella pneumoniae, NCTC13438
How it was run: as §2

[10] = system: K. pneumoniae H154680676 (KP5); assay: MIC broth microdilution; assay type: cell-based, Klebsiella pneumoniae; settings: Klebsiella pneumoniae
How it was run: as §2

[11] = system: K. pneumoniae H154300688 (KP9); assay: MIC broth microdilution; assay type: cell-based, Klebsiella pneumoniae; settings: Klebsiella pneumoniae
How it was run: as §2

[12] = system: K. pneumoniae H154020667 (KP6); assay: MIC broth microdilution; assay type: cell-based, Klebsiella pneumoniae; settings: Klebsiella pneumoniae
How it was run: as §2

[13] = system: K. pneumoniae ATCC 700603 (KP3); assay: MIC broth microdilution; assay type: cell-based, Klebsiella pneumoniae; settings: Klebsiella pneumoniae, ATCC700603
How it was run: as §2

[14] = system: K. pneumoniae H154600588 (KP8); assay: MIC broth microdilution; assay type: cell-based, Klebsiella pneumoniae; settings: Klebsiella pneumoniae
How it was run: as §2

[15] = system: K. pneumoniae H154640784 (KP7); assay: MIC broth microdilution; assay type: cell-based, Klebsiella pneumoniae; settings: Klebsiella pneumoniae
How it was run: as §2

Cc1cc(-c2[nH]c(N)nc2-c2ccc3c(c2)OCO3)ccn1 [Example 26, 4-(Benzo[d][1,3]dioxol-5-yl)-5-(2-methylpyridin-4-yl)-1H-imidazol-2-amine]
MIC [1]: 1 to 10 µM (≈ 0.294 to 2.94 µg/mL) | MIC [2]: > 100 µM | MIC [3]: > 100 µM | MIC [4]: ≤ 1 µM | MIC [5]: > 100 µM | MIC [6]: ≤ 1 µM | IC50 ([7]; Homo sapiens): > 100 µM | MIC [8]: 1 to 10 µM (≈ 0.294 to 2.94 µg/mL) | MIC [9]: 10 to 100 µM (≈ 2.94 to 29.4 µg/mL) | MIC [10]: 1 to 10 µM (≈ 0.294 to 2.94 µg/mL) | MIC [11]: 1 to 10 µM (≈ 0.294 to 2.94 µg/mL) | MIC [12]: 1 to 10 µM (≈ 0.294 to 2.94 µg/mL) | MIC [13]: 10 to 100 µM (≈ 2.94 to 29.4 µg/mL) | MIC [14]: 10 to 100 µM (≈ 2.94 to 29.4 µg/mL) | MIC [15]: 10 to 100 µM (≈ 2.94 to 29.4 µg/mL)

Cc1cc(-c2[nH]c(C)nc2-c2ccc3c(c2)OCCO3)ccn1 [Example 84, 4-(4-(2,3-Dihydrobenzo[b][1,4]dioxin-6-yl)-2-methyl-1H-imidazol-5-yl)-2-methylpyridine]
MIC [1]: 1 to 10 µM (≈ 0.307 to 3.07 µg/mL) | MIC [2]: > 100 µM | MIC [3]: > 100 µM | MIC [4]: 1 to 10 µM (≈ 0.307 to 3.07 µg/mL) | MIC [5]: > 100 µM | MIC [6]: ≤ 1 µM | IC50 ([7]; Homo sapiens): > 100 µM | MIC [8]: 1 to 10 µM (≈ 0.307 to 3.07 µg/mL) | MIC [9]: 10 to 100 µM (≈ 3.07 to 30.7 µg/mL) | MIC [10]: 1 to 10 µM (≈ 0.307 to 3.07 µg/mL) | MIC [11]: 10 to 100 µM (≈ 3.07 to 30.7 µg/mL) | MIC [12]: 1 to 10 µM (≈ 0.307 to 3.07 µg/mL) | MIC [13]: 10 to 100 µM (≈ 3.07 to 30.7 µg/mL) | MIC [14]: 10 to 100 µM (≈ 3.07 to 30.7 µg/mL) | MIC [15]: 10 to 100 µM (≈ 3.07 to 30.7 µg/mL)

Cc1cc(-c2[nH]c(C(=O)O)nc2-c2ccc3c(c2)OCCO3)ccn1 [Example 86, 4-(2,3-dihydrobenzo[b][1,4]dioxin-6-yl)-5-(2-methylpyridin-4-yl)-1H-imidazole-2-carboxylate]
MIC UPEC [1]: D (a MIC of over 100 is assigned the letter D) | MIC PA [2]: D (a MIC of over 100 is assigned the letter D) | MIC AB [3]: D (a MIC of over 100 is assigned the letter D) | MIC EC [4]: D (a MIC of over 100 is assigned the letter D) | MIC SA [5]: D (a MIC of over 100 is assigned the letter D) | MIC KP2 [6]: B (a MIC of from 1 to 10 is assigned the letter B) | IC50 [7]: > 100 µM | MIC KP1 [9]: D (a MIC of over 100 is assigned the letter D)

Nc1nc(-c2ccc3c(c2)OCCO3)c(-c2cc[nH]c(=O)c2)[nH]1 [Example 18, 4-(2-Amino-4-(2,3-dihydrobenzo[b][1,4]dioxin-6-yl)-1H-imidazol-5-yl)pyridin-2(1H)-one]
MIC [1]: 10 to 100 µM (≈ 3.1 to 31 µg/mL) | MIC [2]: > 100 µM | MIC [3]: > 100 µM | MIC [4]: 10 to 100 µM (≈ 3.1 to 31 µg/mL) | MIC [5]: > 100 µM | MIC [6]: 1 to 10 µM (≈ 0.31 to 3.1 µg/mL) | IC50 ([7]; Homo sapiens): > 100 µM | MIC [9]: > 100 µM

Cc1cc(-c2[nH]c(N)nc2-c2ccc3c(c2)N(CCO)C(=O)CO3)ccn1 [Example 66, 6-(2-Amino-4-(2-methylpyridin-4-yl)-1H-imidazol-5-yl)-4-(2-hydroxyethyl)-2H-benzo[b][1,4]oxazin-3(4H)-one]
MIC [1]: 1 to 10 µM (≈ 0.365 to 3.65 µg/mL) | MIC [2]: > 100 µM | MIC [3]: > 100 µM | MIC [4]: 1 to 10 µM (≈ 0.365 to 3.65 µg/mL) | MIC [5]: > 100 µM | MIC [6]: ≤ 1 µM | IC50 ([7]; Homo sapiens): > 100 µM | MIC [9]: 10 to 100 µM (≈ 3.65 to 36.5 µg/mL)

CC(=O)N1CCOc2ccc(-c3nc(N)[nH]c3-c3ccnc(C)c3)cc21 [Example 63, 1-(6-(2-Amino-5-(2-methylpyridin-4-yl)-1H-imidazol-4-yl)-2,3-dihydro-4H-benzo[b][1,4]oxazin-4-yl)ethan-1-one]
MIC [1]: 10 to 100 µM (≈ 3.49 to 34.9 µg/mL) | MIC [2]: > 100 µM | MIC [3]: > 100 µM | MIC [4]: 10 to 100 µM (≈ 3.49 to 34.9 µg/mL) | MIC [5]: > 100 µM | MIC [6]: 1 to 10 µM (≈ 0.349 to 3.49 µg/mL) | IC50 ([7]; Homo sapiens): > 100 µM | MIC [9]: > 100 µM

COC(=O)CCN1CCOc2ccc(-c3nc(N)[nH]c3-c3ccnc(C)c3)cc21 [Example 61, Methyl 3-(6-(2-amino-5-(2-methylpyridin-4-yl)-1H-imidazol-4-yl)-2,3-dihydro-4H-benzo[b][1,4]oxazin-4-yl)propanoate]
MIC [1]: 1 to 10 µM (≈ 0.393 to 3.93 µg/mL) | MIC [2]: > 100 µM | MIC [3]: > 100 µM | MIC [4]: 1 to 10 µM (≈ 0.393 to 3.93 µg/mL) | MIC [5]: > 100 µM | MIC [6]: ≤ 1 µM | IC50 ([7]; Homo sapiens): > 100 µM | MIC [9]: 1 to 10 µM (≈ 0.393 to 3.93 µg/mL)

COc1cc(-c2[nH]c(N)nc2-c2ccnc(C)c2)ccc1F [Example 6, 5-(4-Fluoro-3-methoxyphenyl)-4-(2-methylpyridin-4-yl)-1H-imidazol-2-amine]
MIC [1]: 1 to 10 µM (≈ 0.298 to 2.98 µg/mL) | MIC [2]: > 100 µM | MIC [3]: > 100 µM | MIC [4]: 1 to 10 µM (≈ 0.298 to 2.98 µg/mL) | MIC [5]: > 100 µM | MIC [6]: ≤ 1 µM | IC50 ([7]; Homo sapiens): > 100 µM | MIC [9]: 10 to 100 µM (≈ 2.98 to 29.8 µg/mL)

Cc1cc(-c2[nH]c(N)nc2-c2cc(F)c3c(c2)NC(=O)CO3)ccn1 [Example 50, 6-(2-Amino-5-(2-methylpyridin-4-yl)-1H-imidazol-4-yl)-8-fluoro-2H-benzo[b][1,4]oxazin-3(4H)-one]
MIC [1]: 1 to 10 µM (≈ 0.339 to 3.39 µg/mL) | MIC [2]: > 100 µM | MIC [3]: > 100 µM | MIC [4]: 1 to 10 µM (≈ 0.339 to 3.39 µg/mL) | MIC [5]: > 100 µM | MIC [6]: ≤ 1 µM | IC50 ([7]; Homo sapiens): > 100 µM | MIC [9]: 10 to 100 µM (≈ 3.39 to 33.9 µg/mL)

Cc1cc(-c2[nH]c(N)nc2-c2ccc3c(c2)N(C)CCO3)ccn1 [Example 44, 4-(4-Methyl-3,4-dihydro-2H-benzo[b][1,4]oxazin-6-yl)-5-(2-methylpyridin-4-yl)-1H-imidazol-2-amine]
MIC [1]: 1 to 10 µM (≈ 0.321 to 3.21 µg/mL) | MIC [2]: > 100 µM | MIC [3]: > 100 µM | MIC [4]: 1 to 10 µM (≈ 0.321 to 3.21 µg/mL) | MIC [5]: > 100 µM | MIC [6]: ≤ 1 µM | IC50 ([7]; Homo sapiens): > 100 µM | MIC [9]: 1 to 10 µM (≈ 0.321 to 3.21 µg/mL)

Cc1cc(-c2[nH]c(N)nc2-c2ccc3c(c2)NC(=O)C(C)O3)ccn1 (stereo not shown) [Example 33, 6-(2-Amino-5-(2-methylpyridin-4-yl)-1H-imidazol-4-yl)-2-methyl-2H-benzo[b][1,4]oxazin-3(4H)-one]
MIC [1]: 1 to 10 µM (≈ 0.335 to 3.35 µg/mL) | MIC [2]: > 100 µM | MIC [3]: > 100 µM | MIC [4]: 1 to 10 µM (≈ 0.335 to 3.35 µg/mL) | MIC [5]: > 100 µM | MIC [6]: ≤ 1 µM | IC50 ([7]; Homo sapiens): > 100 µM | MIC [9]: 10 to 100 µM (≈ 3.35 to 33.5 µg/mL)

Cc1cc(-c2[nH]c(N)nc2-c2cc3c(cc2F)OCCO3)ccn1 [Example 59, 4-(7-Fluoro-2,3-dihydrobenzo[b][1,4]dioxin-6-yl)-5-(2-methylpyridin-4-yl)-1H-imidazol-2-amine]
MIC [1]: ≤ 1 µM | MIC [2]: > 100 µM | MIC [3]: > 100 µM | MIC [4]: ≤ 1 µM | MIC [5]: > 100 µM | MIC [6]: ≤ 1 µM | IC50 ([7]; Homo sapiens): > 100 µM | MIC [9]: 10 to 100 µM (≈ 3.26 to 32.6 µg/mL)

Nc1cc(-c2[nH]c(N)nc2-c2ccc3c(c2)NCCO3)ccn1 [Example 42, 4-(2-Amino-4-(3,4-dihydro-2H-benzo[b][1,4]oxazin-6-yl)-1H-imidazol-5-yl)pyridin-2-amine]
MIC [1]: 1 to 10 µM (≈ 0.308 to 3.08 µg/mL) | MIC [2]: > 100 µM | MIC [3]: > 100 µM | MIC [4]: 1 to 10 µM (≈ 0.308 to 3.08 µg/mL) | MIC [5]: > 100 µM | MIC [6]: ≤ 1 µM | IC50 ([7]; Homo sapiens): > 100 µM | MIC [9]: 10 to 100 µM (≈ 3.08 to 30.8 µg/mL)
